Source: US20240277713A1 (Kadmon Corporation, LLC, priority 2022, published 2024)
Where a name gives a salt, the structure may show the parent alone.

Assays:
Solubility = format: physicochemical
Description: The tablet film consists of polyvinyl alcohol, polyethylene glycol, talc, titanium dioxide and yellow iron oxide. Each 200 mg tablet is a pale-yellow film-coated oblong tablet debossed with “KDM” on one side and “200” on the other side. Tablets are stored at room temperature, 20° C. to 25° C. (68° F. to 77° F.); excursions permitted from 15° C. and 30° C. (59° F. to 86° F.).

[1] = Toxicokinetics in pregnant New Zealand White rabbits (Example 2); format: in vivo, rabbit; conditions: GD 18
Description: The study was conducted in two phases: Phase A was a dose range finding tolerance study with non-pregnant rabbits, and Phase B was the pilot developmental toxicity study.
All fetuses were given the appropriate external examination.

[2] = Toxicokinetics in pregnant Sprague-Dawley rats (Example 1); format: in vivo, rat; conditions: belumosudil 25 mg base/kg/day oral, GD 17
[3] = Toxicokinetic evaluation in pregnant rats (Example 3); format: in vivo, rat
Text: Animals received in-life and postmorten evaluations.

[4] = Toxicokinetic evaluation in pregnant rabbits (Example 4); format: in vivo, rabbit
Description: The dose levels for the treated groups were 50, 125, 225, mg base/kg/day at a dose volume of 10 mL/kg. The control group received the vehicle in the same manner as the treated groups. […] Individual doses were based on the most recent body weights.
Observations of the animals included clinical signs, body weights, food consumption, and anatomical pathology including a uterine examination. […] All fetuses were given an external, visceral, and skeletal examination.

[5] = Toxicokinetic analysis in rat plasma (Example 5); format: in vivo
Description: TK animals were dosed for 70 and 14 days for the males and females, respectively. Dosing of TK males and females was initiated simultaneously, continuing to euthanasia. Refrigerated daily aliquots of dosing formulations were brought to room temperature while continuously stirring for at least 30 minutes prior to dosing.

patients with cGVHD = conditions: cited from earlier work
[6] = belumosudil 50 mg base/kg/day oral
[7] = belumosudil 250 mg base/kg/day oral
[8] = GD 6, belumosudil 15 mg base/kg oral
[9] = GD 6, belumosudil 50 mg base/kg oral
[10] = GD 6, belumosudil 150 mg base/kg oral
[11] = GD 17, belumosudil 15 mg base/kg oral
[12] = GD 17, belumosudil 50 mg base/kg oral
[13] = GD 17, belumosudil 150 mg base/kg oral
[14] = GD 6, belumosudil 125 mg base/kg oral
[15] = GD 6, belumosudil 225 mg base/kg oral
[16] = GD 18, belumosudil 50 mg base/kg oral
[17] = GD 18, belumosudil 125 mg base/kg oral
[18] = GD 18, belumosudil 225 mg base/kg oral
[19] = Day 1, belumosudil 50 mg base/kg, F
[20] = Day 1, belumosudil 50 mg base/kg, M
[21] = Day 1, belumosudil 150 mg base/kg, F
[22] = Day 1, belumosudil 150 mg base/kg, M
[23] = Day 1, belumosudil 275 mg base/kg, F
[24] = Day 1, belumosudil 275 mg base/kg, M
[25] = Day 14, belumosudil 50 mg base/kg, F
[26] = Day 14, belumosudil 150 mg base/kg, F
[27] = Day 14, belumosudil 275 mg base/kg, F
[28] = Day 70, belumosudil 50 mg base/kg, M
[29] = Day 70, belumosudil 150 mg base/kg, M
[30] = Day 70, belumosudil 275 mg base/kg, M

Compound: CC(C)NC(=O)COc1cccc(-c2nc(Nc3ccc4[nH]ncc4c3)c3ccccc3n2)c1 [Belumosudil mesylate, 2-{3-[4-(1H-indazol-5-ylamino)-2-quinazolinyl]phenoxy}-N-(propan-2-yl) acetamide methanesulfonate (1:1)]
- solubility in DMSO (Solubility): soluble in DMSO
- solubility in methanol and DMF (Solubility): slightly soluble in methanol and DMF
- solubility in water (Solubility): practically insoluble in water

Compound: O=C(O)COc1cccc(-c2nc(Nc3ccc4[nH]ncc4c3)c3ccccc3n2)c1 [KD025m2]
- maternal AUC0-24 [1, 6]: 2990 ng·h/mL
- maternal Cmax [1, 6]: 1090 ng/mL
- maternal AUC0-24 [1, 7]: 19700 ng·h/mL
- maternal Cmax [1, 7]: 3080 ng/mL
- maternal AUC0-24 [2]: 1480 ng·h/mL
- maternal Cmax [2]: 127 ng/mL
- Mean AUC0-24 in plasma of pregnant rats [3, 8]: 515 ng·h/mL
- Mean Cmax in plasma of pregnant rats [3, 8]: 76.2 ng/mL
- Mean AUC0-24 in plasma of pregnant rats [3, 9]: 3050 ng·h/mL
- Mean Cmax in plasma of pregnant rats [3, 9]: 191 ng/mL
- Mean AUC0-24 in plasma of pregnant rats [3, 10]: 10500 ng·h/mL
- Mean Cmax in plasma of pregnant rats [3, 10]: 519 ng/mL
- Mean AUC0-24 in plasma of pregnant rats [3, 11]: 572 ng·h/mL
- Mean Cmax in plasma of pregnant rats [3, 11]: 55.6 ng/mL
- Mean AUC0-24 in plasma of pregnant rats [3, 12]: 3580 ng·h/mL
- Mean Cmax in plasma of pregnant rats [3, 12]: 350 ng/mL
- Mean AUC0-24 in plasma of pregnant rats [3, 13]: 11100 ng·h/mL
- Mean Cmax in plasma of pregnant rats [3, 13]: 972 ng/mL
- accumulation after multiple dosing of belumosudil ([3]; pregnant rats): No apparent accumulation
- Mean AUC0-24 in plasma of pregnant rabbits [4, 9]: 4180 ng·h/mL
- Mean Cmax in plasma of pregnant rabbits [4, 9]: 1170 ng/mL
- Mean AUC0-24 in plasma of pregnant rabbits [4, 14]: 13600 ng·h/mL
- Mean Cmax in plasma of pregnant rabbits [4, 14]: 2180 ng/mL
- Mean AUC0-24 in plasma of pregnant rabbits [4, 15]: 42400 ng·h/mL
- Mean Cmax in plasma of pregnant rabbits [4, 15]: 3190 ng/mL
- Mean AUC0-24 in plasma of pregnant rabbits [4, 16]: 2470 ng·h/mL
- Mean Cmax in plasma of pregnant rabbits [4, 16]: 1120 ng/mL
- Mean AUC0-24 in plasma of pregnant rabbits [4, 17]: 16700 ng·h/mL
- Mean Cmax in plasma of pregnant rabbits [4, 17]: 3610 ng/mL
- Mean AUC0-24 in plasma of pregnant rabbits [4, 18]: 41500 ng·h/mL
- Mean Cmax in plasma of pregnant rabbits [4, 18]: 4620 ng/mL
- accumulation after multiple dosing of belumosudil ([4]; pregnant rabbits): no apparent accumulation
- AUC0-24 in rat plasma [5, 19]: 2110 ng·h/mL
- Cmax in rat plasma [5, 19]: 135 ng/mL
- AUC0-24 in rat plasma [5, 20]: 5440 ng·h/mL
- Cmax in rat plasma [5, 20]: 501 ng/mL
- AUC0-24 in rat plasma [5, 21]: 6860 ng·h/mL
- Cmax in rat plasma [5, 21]: 398 ng/mL
- AUC0-24 in rat plasma [5, 22]: 13600 ng·h/mL
- Cmax in rat plasma [5, 22]: 686 ng/mL
- AUC0-24 in rat plasma [5, 23]: 11500 ng·h/mL
- Cmax in rat plasma [5, 23]: 925 ng/mL
- AUC0-24 in rat plasma [5, 24]: 21500 ng·h/mL
- Cmax in rat plasma [5, 24]: 1680 ng/mL
- AR (Accumulation Ratio) AUC0-24 [5, 25]: 0.657
- AUC0-24 in rat plasma [5, 25]: 1390 ng·h/mL
- Cmax in rat plasma [5, 25]: 125 ng/mL
- AR (Accumulation Ratio) AUC0-24 [5, 26]: 1.04
- AUC0-24 in rat plasma [5, 26]: 7110 ng·h/mL
- Cmax in rat plasma [5, 26]: 523 ng/mL
- AR (Accumulation Ratio) AUC0-24 [5, 27]: 1.80
- AUC0-24 in rat plasma [5, 27]: 20700 ng·h/mL
- Cmax in rat plasma [5, 27]: 1480 ng/mL
- AR (Accumulation Ratio) AUC0-24 [5, 28]: 0.750
- AUC0-24 in rat plasma [5, 28]: 4080 ng·h/mL
- Cmax in rat plasma [5, 28]: 410 ng/mL
- AR (Accumulation Ratio) AUC0-24 [5, 29]: 0.701
- AUC0-24 in rat plasma [5, 29]: 9520 ng·h/mL
- Cmax in rat plasma [5, 29]: 1070 ng/mL
- AR (Accumulation Ratio) AUC0-24 [5, 30]: 1.35
- AUC0-24 in rat plasma [5, 30]: 28900 ng·h/mL
- Cmax in rat plasma [5, 30]: 1900 ng/mL
- accumulation after multiple doses of belumosudil ([5]; rats): less than 2 fold

Compound: C=CC(=O)N1CCC[C@@H](n2nc(-c3ccc(Oc4ccccc4)cc3)c3c(N)ncnc32)C1 [ibrutinib]
- discontinuation rate because of TEAEs (patients with cGVHD): 43%
